Test results published in patent publication US12281119B2, “Imidazo[2,1-f][1,2,4]triazin-4-amine derivatives as TLR7 agonist” (BEIGENE, LTD., priority 2019, dated 2025).

Assays:
human TLR 8 protein = target: T1, human TLR 8 protein (Homo sapiens, UniProt Q9NR97); assay: TLR8 stimulation determined using HEK-Blue Detection; type: cell-based; settings: HEK-Blue hTLR8 cells, 16 hr, relative to Resiquimod or Motolimod maximum
T1 construct: expressed in transfected cells; host or cells: HEK293 (HEK-Blue hTLR8)
T1 sequence (Q9NR97 27-1041): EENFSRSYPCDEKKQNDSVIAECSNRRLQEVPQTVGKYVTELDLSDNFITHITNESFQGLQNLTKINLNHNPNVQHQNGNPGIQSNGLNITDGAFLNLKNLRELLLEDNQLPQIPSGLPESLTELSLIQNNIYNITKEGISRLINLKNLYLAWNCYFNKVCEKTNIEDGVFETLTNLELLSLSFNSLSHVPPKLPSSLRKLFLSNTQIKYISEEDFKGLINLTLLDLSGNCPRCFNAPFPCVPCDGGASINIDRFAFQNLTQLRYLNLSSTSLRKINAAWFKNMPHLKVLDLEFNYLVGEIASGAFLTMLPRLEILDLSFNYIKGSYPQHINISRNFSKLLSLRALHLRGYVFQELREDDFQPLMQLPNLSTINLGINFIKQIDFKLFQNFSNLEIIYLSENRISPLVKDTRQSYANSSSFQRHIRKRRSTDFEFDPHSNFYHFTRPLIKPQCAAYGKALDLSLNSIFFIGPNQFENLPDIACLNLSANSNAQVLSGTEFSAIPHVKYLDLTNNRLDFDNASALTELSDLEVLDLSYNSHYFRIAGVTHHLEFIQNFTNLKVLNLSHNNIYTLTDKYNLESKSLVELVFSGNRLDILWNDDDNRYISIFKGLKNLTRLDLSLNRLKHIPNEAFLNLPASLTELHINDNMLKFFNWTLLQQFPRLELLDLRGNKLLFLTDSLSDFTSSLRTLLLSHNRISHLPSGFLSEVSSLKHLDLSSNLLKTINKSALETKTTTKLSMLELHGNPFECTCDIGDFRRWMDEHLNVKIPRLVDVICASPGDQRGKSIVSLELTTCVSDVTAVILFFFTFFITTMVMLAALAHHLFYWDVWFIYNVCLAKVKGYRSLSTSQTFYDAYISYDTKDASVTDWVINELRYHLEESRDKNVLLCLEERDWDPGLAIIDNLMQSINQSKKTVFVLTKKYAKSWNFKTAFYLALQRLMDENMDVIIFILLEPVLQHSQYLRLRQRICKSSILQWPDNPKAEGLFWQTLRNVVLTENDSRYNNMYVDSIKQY
Text: TLR8 Stimulation Determined Using HEK-Blue Detection
This assay was designed for studying the stimulation of human TLR 8 protein in HEK-Blue hTLR8 tool cell line by monitoring the activation of NF-1B. HEK-Blue hTLR8 cells were obtained by co-transfection of the hTLR8 gene and an optimized secreted embryonic alkaline phosphatase (SEAP) reporter gene into HEK293 cells. The SEAP reporter gene was placed under the control of the IFN-β minimal promoter fused to five NF-κB and AP-1-binding sites. Stimulation with a TLR 8 ligand activates NF-κB and AP-1 which induce the expression of SEAP. Levels of SEAP can be easily determined with HEK-Blue Detection, a cell culture medium that allows for real-time detection of SEAP. HEK-Blue Detection contains all the nutrients necessary for cell growth and a specific SEAP color substrate. The hydrolysis of the substrate by SEAP produces a purple/blue color that can be measured with a spectrophotometer.
When growing to 50-80% confluency, HEK-Blue hTLR7/8 cells were plated into 96-well plate (costar 3599) at a density of 40000 cells/well. Then compounds were added with serial dilutions over 10 points with a 1 nM-10 uM final concentration range in 0.1% DMSO/HEK-Blue Detection. The plates were then incubated for 16 hr at 37° C. in 5% CO2. The optical density at 620-655 nm was read on BMG PHERAstar FSX instrument. The EC50 for each compound was determined by calculating the percentages of the maximum activation identified with Resiquimod or Motolimod.

human TLR7 = target: T2, human TLR7 (Homo sapiens, UniProt Q9NYK1); assay: TLR7 stimulation determined using HEK-Blue Detection; type: cell-based; parameters: expressed in transfected cells; host or cells: HEK293 (HEK-Blue hTLR7); settings: HEK-Blue hTLR7 cells, HEK-Blue Detection (A77-A124), 16 hr, relative to Resiquimod maximum
T2 sequence (Q9NYK1 27-1049): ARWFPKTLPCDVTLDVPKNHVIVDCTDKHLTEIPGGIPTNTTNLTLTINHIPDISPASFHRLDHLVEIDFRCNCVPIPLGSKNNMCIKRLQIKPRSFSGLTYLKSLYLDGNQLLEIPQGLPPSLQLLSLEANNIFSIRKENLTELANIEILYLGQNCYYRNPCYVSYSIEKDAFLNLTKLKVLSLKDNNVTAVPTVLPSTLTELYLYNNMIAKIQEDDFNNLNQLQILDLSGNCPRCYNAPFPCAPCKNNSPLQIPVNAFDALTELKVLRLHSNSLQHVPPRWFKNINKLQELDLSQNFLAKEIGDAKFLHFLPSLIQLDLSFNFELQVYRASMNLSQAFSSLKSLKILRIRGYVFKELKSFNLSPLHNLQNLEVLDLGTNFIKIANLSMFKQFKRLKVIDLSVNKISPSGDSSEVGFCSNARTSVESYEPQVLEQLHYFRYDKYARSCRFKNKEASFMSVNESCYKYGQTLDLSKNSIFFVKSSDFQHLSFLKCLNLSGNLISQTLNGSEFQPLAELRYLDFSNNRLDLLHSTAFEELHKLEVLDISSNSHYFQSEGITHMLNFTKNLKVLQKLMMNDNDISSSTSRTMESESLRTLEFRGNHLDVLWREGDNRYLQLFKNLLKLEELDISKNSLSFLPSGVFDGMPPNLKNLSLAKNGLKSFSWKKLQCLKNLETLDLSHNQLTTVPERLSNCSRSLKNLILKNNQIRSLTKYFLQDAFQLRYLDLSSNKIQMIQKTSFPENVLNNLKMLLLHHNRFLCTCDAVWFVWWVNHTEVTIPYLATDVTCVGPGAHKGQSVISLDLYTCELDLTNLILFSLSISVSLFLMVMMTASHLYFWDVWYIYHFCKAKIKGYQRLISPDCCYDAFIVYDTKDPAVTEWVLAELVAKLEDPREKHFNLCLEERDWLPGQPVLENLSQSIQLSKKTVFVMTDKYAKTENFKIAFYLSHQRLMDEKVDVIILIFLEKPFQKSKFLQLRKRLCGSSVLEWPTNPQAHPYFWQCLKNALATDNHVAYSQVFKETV
Text: TLR7 Stimulation Determined Using HEK-Blue Detection
This assay was designed for studying the stimulation of human TLR7 protein in HELK-Blue hTLR7 tool cell line by monitoring the activation of NF-κB. HEK-Blue hTLR7 cells were obtained by co-transfection of the hTLR7 gene and an optimized secreted embryonic alkaline phosphatase (SLAP) reporter gene into HEK293 cells. The SLAP reporter gene was placed under the control of the IFN-β minimal promoter fused to five NF-κB and AP-1-binding sites. Stimulation with a TLR7 ligand activates NF-κB and AP-1 which induce the expression of SLAP. Levels of SLAP can be easily determined with HEK-Blue Detection, a cell culture medium that allows for real-time detection of SLAP. HLK-Blue Detection contains all the nutrients necessary for cell growth and a specific SLAP color substrate. The hydrolysis of the substrate by SLAP produces a purple/blue color that can be measured with a spectrophotometer.
When growing to 50-80%0 confluency, HLK-Blue hTLR7 cells were plated into 96-well plate (costar 3599) at a density of 40000 cells/well. Then compounds were added with serial dilutions over 10 points with a 0.04 nM-10 μM final concentration range in 0.1% DMSO/BLK-Blue Detection. The plates were then incubated for 16 hr at 37° C. in […] and vortex for 30s before measurement. The optical density at 620-655 nm was read on BMG PHLRAstar FSX instrument. The EC50 for each compound was determined by calculating the percentages of the maximum activation identified with Resiquimod.

Row | SMILES | EC50 (human TLR 8 protein) | EC50 (human TLR7)
1 | CC[C@H](C)Oc1nc(N)c2ncc(Cc3ccc(OCCNC)nc3)n2n1 [Compound A89, (S)-2-(sec-butoxy)-7-((6-(2-(methylamino)ethoxy)pyridin-3-yl)methyl)imidazo[2,1-f][1,2,4]triazin-4-amine] | 199 nM | 10 nM
2 | CCCC(CCO)Oc1nc(N)c2ncc(Cc3ccc(OCCNC)cc3OC)n2n1 (single isomer, unassigned) [Compound A101, (R or S)-3-((4-amino-7-(2-methoxy-4-(2-(methylamino)ethoxy)benzyl)imidazo[2,1-f][1,2,4]triazin-2-yl)oxy)hexan-1-ol] | 8.6 nM | 0.78 nM
3 | CCCC(CCC)Oc1nc(N)c2ncc(Cc3ccc(OCCNC)nc3)n2n1 [Compound A87, 2-(heptan-4-yloxy)-7-((6-(2-(methylamino)ethoxy)pyridin-3-yl)methyl)imidazo[2,1-f][1,2,4]triazin-4-amine] | 434 nM | 10.5 nM
4 | CCCC(CCO)Oc1nc(N)c2ncc(Cc3ccc(OCCNC)nc3)n2n1 (single isomer, unassigned) [Compound A81, (R or S) 3-((4-amino-7-((6-(2-(methylamino)ethoxy)pyridin-3-yl)methyl)imidazo[2,1-f][1,2,4]triazin-2-yl)oxy)hexan-1-ol] | 6250 nM | 310 nM
5 | CCC[C@H](C)Oc1nc(N)c2ncc(Cc3ccc(OCCNC)c(F)c3)n2n1 [Compound A99, (S)-7-(3-fluoro-4-(2-(methylamino)ethoxy)benzyl)-2-(pentan-2-yloxy)imidazo[2,1-f][1,2,4]triazin-4-amine] | 129 nM | 14.4 nM
6 | CCCC(CCO)Oc1nc(N)c2ncc(Cc3ccc(OCCNC)nc3)n2n1 (stereo not shown) [Compound A79, 3-((4-amino-7-((6-(2-(methylamino)ethoxy)pyridin-3 yl)methyl)imidazo[2,1-f][1,2,4]triazin-2-yl)oxy)hexan-1-ol] | 69 nM | 10 nM
7 | CCCC(CCO)Oc1nc(N)c2ncc(Cc3cc(F)c(OCCNC)c(F)c3)n2n1 (single isomer, unassigned) [Compound A114, (R or S)-3-((4-amino-7-(3,5-difluoro-4-(2-(methylamino)ethoxy)benzyl)imidazo[2,1-f][1,2,4]triazin-2-yl)oxy)hexan-1-ol] | 6.8 nM | 1 nM
8 | CCCC(CCO)Oc1nc(N)c2ncc(Cc3ccc(OCCNC)c(F)c3)n2n1 (single isomer, unassigned) [Compound A105, (R or S)-3-((4-amino-7-(3-fluoro-4-(2-(methylamino)ethoxy)benzyl)imidazo[2,1-f][1,2,4]triazin-2-yl)oxy)hexan-1-ol] | 622 nM | 61 nM
9 | CCCC(CCO)Oc1nc(N)c2ncc(Cc3ccc(CCNC)cc3)n2n1 (single isomer, unassigned) [Compound A120, (S or R)-3-((4-amino-7-(4-(2-(methylamino)ethyl)benzyl)imidazo[2,1-f][1,2,4]triazin-2-yl)oxy)hexan-1-ol] | 59 nM | 3.9 nM
10 | CCCC(CCO)Oc1nc(N)c2ncc(Cc3ccc(OCCNC)c(OC)c3)n2n1 (stereo not shown) [Compound A98, 3-((4-amino-7-(3-methoxy-4-(2-(methylamino)ethoxy)benzyl)imidazo[2,1-f][1,2,4]triazin-2-yl)oxy)hexan-1-ol] | 163 nM | 11 nM
11 | CCCC(CCO)Oc1nc(N)c2ncc(Cc3ccc(OCCNC)nc3)n2n1 (single isomer, unassigned) [Compound A82, (S or R) 3-((4-amino-7-((6-(2-(methylamino)ethoxy)pyridin-3-yl)methyl)imidazo[2,1-f][1,2,4]triazin-2-yl)oxy)hexan-1-ol] | 22 nM | 5 nM
12 | CCCC(CCO)Oc1nc(N)c2ncc(Cc3ccc(OCCNC)cc3OCC)n2n1 (single isomer, unassigned) [Compound A121, (R or S)-3-((4-amino-7-(2-ethoxy-4-(2-(methylamino)ethoxy)benzyl)imidazo[2,1-f][1,2,4]triazin-2-yl)oxy)hexan-1-ol] | 19 nM | 0.63 nM
13 | CCCC(CCO)Oc1nc(N)c2ncc(Cc3ccc(N(C)CCNC)cc3)n2n1 (stereo not shown) [Compound A94, 3-((4-amino-7-(4-(methyl(2-(methylamino)ethyl)amino)benzyl)imidazo[2,1-f][1,2,4]triazin-2-yl)oxy)hexan-1-ol] | 146 nM | 13.8 nM
14 | CCCC(CCO)Oc1nc(N)c2ncc(Cc3cc(OC)cc(OCCNC)c3)n2n1 (single isomer, unassigned) [Compound A116, (R or S)-3-((4-amino-7-(3-methoxy-5-(2-(methylamino)ethoxy)benzyl)imidazo[2,1-f][1,2,4]triazin-2-yl)oxy)hexan-1-ol] | 51 nM | 37.8 nM
